In the NIST ThermoML archive (doi:10.1021/je2009208):
Numbers after ± are expanded uncertainties.

Legend:
[1] = refractive index (Na D-line) (dimensionless); details: 293.15 K; 101.33 kPa; Liquid; Standard Abbe refractometry
[2] = 298.15 K; 101.33 kPa; Liquid; Vibrating tube method

Structure (SMILES)	refractive index [1]	mass density [2] [kg/m3]
O [water]	1.3333 ± 0.0008	
C=CC#N [acrylonitrile]	1.3908 ± 0.0008	800.6 ± 0.2
CO [methanol]	1.3286 ± 0.0008	791.3 ± 0.2
